The series can be described thus: Mouse pharmacokinetic study: liver concentrations of dFdC and dFdU at 2h. The format is in vivo, C57BL/6 mice. Particulars: i.v., Gemcitabine 15 mg/kg or Compound 4 at equivalent dose, Fig. 2. The method, then:
C57BL/6 mice used in this experiment were purchased from Beijing Vital River Laboratory Animal Technology Co., Ltd., and male mice with a body weight in the range of 16~19 g were tested for administration. The animals were housed with appropriate air conditions (temperature: 20~25 °C; humidity: 40%~70%; light/dark cycle: 12 hours), and were provided with the food and water ad lib.
The solution media for IV administration were DMSO: 30% solutol HS-15:saline = 10:10:80 (v/v/v). Test substances were dissolved in the media to obtain a clear solution, and filtered through PTFE to get a colorless clear solution for IV administration.
The solution media for oral administration were DMSO: 30% solutol HS-15:saline = 10:10:80 (v/v/v). […]
The pharmacokinetic (PK) profile of liver-targeted gemcitabine (dFdC) prodrug according to Formula I (i.e., Compound 4) was evaluated in male […] mice following intravenous administration (i.v.) at an equivalent dose to 15 mg/kg of Gemcitabine or following oral administration (PO or i.g.) at a dose of 80 mg/kg.
Blood samples of designated animals (n = 3/time point/compound) were taken at 0.083, 0.25, 0.5, 1, 2, 4, and 8 hours following i.v. administration, and at 0.25, 0.5, 1, 2, 4, 8 and 24 hours following PO administration, respectively. […] Pharmacokinetic parameters were calculated using WinNonlin software (Pharsight Corp., Mountain View, CA).

For the molecule `Nc1ccn([C@@H]2O[C@H](CO)[C@@H](O)C2(F)F)c(=O)n1` [Gemcitabine, 2',2'-difluoro-2'-deoxycytidine], the “dFdC levels in the liver” value is “no detectable dFdC levels” and the “dFdU levels in the liver” value is recorded as “significant levels of dFdU”.

These data come from EP3820879B1, “PHOSPHORUS-CONTAINING PRODRUGS OF GEMCITABINE” (Changchun Changcheng Pharmaceutical Technology Co., LTD, priority 2018, dated 2020).
